Reference: patent publication US20140243239A1, “MULTIPLEXED KINASE INHIBITOR BEADS AND USES THEREOF” (University of North Carolina at Chapel Hill, priority 2011, published 2014)

Assays:
AKT = AKT phosphorylation in pancreatic cancer PDX tumors; type: in vivo, mice; conditions: daily treatment, harvested 4-6 h after last dose
Experimental: Kinome reprogramming in PDX model of pancreatic cancer after BKM120 treatment: The kinome response of a pancreatic cancer PDX to BKM120 treatment was evaluated using MIB/MS. […] Kinome reprogramming in PDX models: De-identified tumors from patients are grafted into immunecompromised mice and passaged. All tumors are characterized using microarray and mutational analysis. Hematoxylin & eosin staining of a patient tumor at the time of operation and after several passages over a 1.5 yr period showing similar glandular architecture with surrounding stroma. Variable levels of pERK1/2 and pAKT(S473) was seen across pancreatic cancer PDX. PDX P100422 with moderate levels of pAKT was selected for BKM120 treatment. pAKT expression in BKM120 versus vehicle treated PDX tumor. Mice were treated daily with either vehicle control (n=3) or BKM120 (n=3) and tumors were harvested 4-6 h after the last dose. PDX tumors were treated daily for 28 days. […] The 3 vehicle control and 3 BKM120 treated tumors showing inhibition of pAKT were analyzed using MIB/MS. Activation and repression of the kinome in response to PI3K inhibition in PDX P100422.

PDX P100422 = test: Tumor growth of pancreatic cancer PDX P100422; type: in vivo, mice
Excerpt: Kinome reprogramming in PDX models: De-identified tumors from patients are grafted into immunecompromised mice and passaged. All tumors are characterized using microarray and mutational analysis. Hematoxylin & eosin staining of a patient tumor at the time of operation and after several passages over a 1.5 yr period showing similar glandular architecture with surrounding stroma. Variable levels of pERK1/2 and pAKT(S473) was seen across pancreatic cancer PDX. PDX P100422 with moderate levels of pAKT was selected for BKM120 treatment. pAKT expression in BKM120 versus vehicle treated PDX tumor. Mice were treated daily with either vehicle control (n=3) or BKM120 (n=3) and tumors were harvested 4-6 h after the last dose. PDX tumors were treated daily for 28 days. […] The 3 vehicle control and 3 BKM120 treated tumors showing inhibition of pAKT were analyzed using MIB/MS. Activation and repression of the kinome in response to PI3K inhibition in PDX P100422.

MEK1 = MEK1 activation in HPAC pancreatic cancer cells; type: cell-based
Experimental: Kinome reprogramming in pancreatic cancer—cell type and inhibitor specific. The kinome response to drug in 3 pancreatic cancer cell lines (HPAC, AsPC-1, HPAF-II) was also evaluated using 3 kinase inhibitors that are currently in Phase I/II clinical trials: BKM120 (Novartis), an oral pan-class 1 PI3K inhibitor, […] (Glaxo Smith-Kline), an ATP competitive PI3K/mTOR inhibitor, and GSK1120212, a reversible allosteric inhibitor of MEK1/2 (Glaxo Smith-Kline). The kinome response for GSK2126458 and GSK1120212 was compared using MIB/MS and RTK arrays to determine if kinome reprogramming was inhibitor-specific. […] Thus, kinome reprogramming is target-specific.

MEK-ERK pathway = test: Window trial in TNBC patients (LCCC 1122), MIB/MS of tumor biopsies; type: in vivo, human; conditions: 7-day post-treatment versus pre-treatment biopsy, preliminary
Excerpt: Kinome reprogramming in TNBC patients treated with the MEK inhibitor GSK1120212 is being evaluated (LCCC 1122).

MEK = conditions: Gilmartin et al. 2011; cited from earlier work
BT474 cells = test: BT474 luminescent cell viability assay; type: cell-based; conditions: 50 nM lapatinib, 0-72 hours
Experimental: The different colors represent different time points of (50 nM) lapatinib treatment relative to DMSO control-treated cells. From light to dark, the time points are 4, 24, and 48 hrs of lapatinib treatment.

Nc1cc(C(F)(F)F)c(-c2cc(N3CCOCC3)nc(N3CCOCC3)n2)cn1 [BKM120]
AKT phosphorylation (AKT): inhibited AKT phosphorylation
effectiveness in the PDX model (PDX P100422; small sample size): not clearly effective
number of tumors showing tumor growth inhibition relative to controls (PDX P100422; treated daily for 28 days): 4 tumors

CC(=O)Nc1cccc(-n2c(=O)n(C3CC3)c(=O)c3c(Nc4ccc(I)cc4F)n(C)c(=O)c(C)c32)c1 [GSK1120212]
MEK1 activation (MEK1): inhibited MEK1 activation
MEK-ERK pathway in patient tumors (MEK-ERK pathway): effectively inhibited
kinome reprogramming in patient tumors (MEK-ERK pathway): upregulation of MRCKG, FER and DDR1
fold lower affinity of MEK phosphorylated at the activation loop serines than nonphosphorylated MEK (MEK): 20 fold

CS(=O)(=O)CCNCc1ccc(-c2ccc3ncnc(Nc4ccc(OCc5cccc(F)c5)c(Cl)c4)c3c2)o1 [lapatinib]
growth of BT474 cells (BT474 cells): growth inhibition
